{"source": "patent US20260062422A1", "about": "(Halda Therapeutics OpCo, Inc., priority 2022, published 2026)", "key": {"[1]": {"test": "Cellular growth inhibition, T-Rex 293 SC cells with doxycycline (progesterone receptor isoform B induced), Example 47", "format": "cell-based", "conditions": "progesterone receptor isoform B induced with 10 ng/mL doxycycline, 72 hours, CellTiter-Glo 2.0, Table 14 (Example 47)", "procedure": "(§1) The following types of cells were prepared for this experiment: (i) a T-Rex 293 cell line having increased expression of progesterone receptor isoform B protein due to exposure to doxycycline and (ii) a T-Rex 293 cell line lacking increased expression of progesterone receptor isoform B protein. Ability of the test compounds to inhibit proliferation of the foregoing cell types was evaluated according to the procedures set forth below.\n(§2) The doxycycline-inducible progesterone receptor isoform B protein expressing cell line was established using the following protocol: T-Rex 293 cells were purchased from Invitrogen (Cat #R71007) and transfected using Lipofectamine 2000 with the wild-type progesterone receptor B protein sequence cloned into the pcDNA4/TO vector. Transfected cells were selected using 400 μg/mL Zeocin (Invitrogen Cat #R25001). Following selection, single clones were raised and maintained in Dulbecco's Modified Eagle Medium (DMEM) supplemented with 10% w/w Tetracycline-free fetal bovine serum (FBS) and 250 μg/mL Zeocin. Clones were analyzed for expression of progesterone receptor isoform B protein in the presence and absence of 10 ng/mL doxycycline (Sigma Cat #D9891), and a single doxycycline-inducible clone (hereinafter “SC”) was selected for use in downstream assays.\n(§3) The SC cells were seeded on poly-D-lysine coated, black clear-bottom 384-well plates at 2500/well, in 25 μL Phenol Red Free Dulbecco's Modified Eagle Medium (DMEM) supplemented with 10% w/w charcoal-dextran treated fetal bovine serum (FBS) and 1% w/w pen-strep, with or without 10 ng/mL doxycycline. Pen-Strep is a commercially available mixture of penicillin G and streptomycin, which is used in mammalian cell culture media to prevent bacterial contamination. Phenol Red Free Dulbecco's Modified Eagle Medium (DMEM) supplemented with 10% w/w charcoal-dextran treated fetal bovine serum (FBS) and 1% w/w pen-strep, with or without 10 ng/mL doxycycline is herein referred to as Treatment Medium. Following seeding of cells in the plates, the plates were spun at 300×g for 30 seconds, then equilibrated to room temperature for 30 minutes, and then deposited in a humidified tissue culture incubator maintained at 37° C. with 5% CO2.\n(§4) At 24 hours after seeding of the cells, dilutions of test compound were prepared in DMSO and dissolved in Treatment Medium, to achieve a final DMSO concentration of 0.5% w/w, thereby providing the Test Compound Solution. A 25 μL aliquot of the Test Compound Solution was added to cells in the well plates. An equal volume of a solution containing DMSO and Treatment Medium was used as a negative control. Following treatment of cells with Test Compound Solution or said equal volume of a solution containing DMSO and Treatment Medium, the plates were spun at 300×g for 30 seconds, and then left in an incubator for 72 hours.\n(§5) At the end of the treatment duration, cell viability was quantified with CellTiter-Glo 2.0 reagent (Promega Cat #G9243). For this purpose, plates were equilibrated to room temperature for 30 minutes, and then 25 μL of CellTiter-Glo 2.0 reagent was added to cells in the plate wells. Plates were then agitated on a shaker for two minutes at 500 rpm and subsequently incubated at room temperature for 10 minutes. Following incubation, the plates were spun at 3000×g for 30 seconds, then sealed with an optical adhesive cover, and luminescence readings were measured with an EnVision Plate Reader (Perkin Elmer).\n(§6) Data was normalized using zero luminescence for baseline. A four-parameter non-linear regression curve fit was applied to dose-response data in GraphPad Prism data analysis software to determine the half-maximal growth inhibitory concentration (GI50) for each test compound."}, "[2]": {"test_system": "T-Rex 293 cell line SC cells lacking increased expression of progesterone receptor isoform B protein", "test": "Cellular growth inhibition, T-Rex 293 SC cells without doxycycline, Example 47", "format": "cell-based", "conditions": "T-Rex 293 SC cells not exposed to doxycycline, 72 hours, CellTiter-Glo 2.0; Table 15 (Example 47)", "procedure": "as §1, §2, §3, §4, §5, §6"}}}
{"smiles": "Cc1sc2c(c1C)C(c1ccc(Cl)cc1)=N[C@H](CC(=O)NCCOCCOCCOCCOCCN(C)c1ncc(C(=O)N[C@H]3C(C)(C)[C@H](Oc4ccc(C#N)c(Cl)c4)C3(C)C)cn1)c1nnc(C)n1-2", "note": "[Compound I-19]", "values": [{"measurement": "GI50", "setting": "[1]", "result": "500 to 1500", "unit": "nM"}, {"measurement": "GI50", "setting": "[2]", "result": "1500 to 3000", "unit": "nM"}]}
{"smiles": "Cc1sc2c(c1C)C(c1ccc(OC3CC4(CCN(c5ncc(C(=O)N[C@H]6C(C)(C)[C@H](Oc7ccc(C#N)c(Cl)c7)C6(C)C)cn5)CC4)C3)cc1)=N[C@@H](Cc1ncco1)c1nnc(C)n1-2", "note": "[Compound I-49, N-[3-(3-chloro-4-cyano-phenoxy)-2,2,4,4-tetramethyl-cyclobutyl]-2-[2-[4-[(9S)-4,5,13-trimethyl-9-(oxazol-2-ylmethyl)-3-thia-1,8,11,12-tetrazatricyclo[8.3.0.02,6]trideca-2(6),4,7,10,12-pentaen-7-yl]phenoxy]-7-azaspiro[3.5]nonan-7-yl]pyrimidine-5-carboxamide]", "values": [{"measurement": "GI50", "setting": "[1]", "result": "< 500", "unit": "nM"}, {"measurement": "GI50", "setting": "[2]", "result": "500 to 1500", "unit": "nM"}]}
